# Read-outs that look alike come from different tables or passages of the source.
# Legend:
# [1] = test system: E. faecium NCTC 12203 (VRE); experiment: MIC, other bacteria (Table 3); type: cell-based; settings: high level VCM-resistant, Van A, inoculum size 10^6 CFU/ml
# MRSE 2442-05060 = experiment: MIC, other bacteria (Table 3); type: cell-based, S. epidermidis; settings: inoculum size 10^6 CFU/ml
# MRSA 2441-05112 = experiment: MIC, other bacteria (Table 3); type: cell-based, S. aureus; settings: inoculum size 10^6 CFU/ml
# [2] = test system: S. aureus ATCC 43300 (MRSA); experiment: MIC, other bacteria (Table 3); type: cell-based; settings: inoculum size 10^6 CFU/ml
# [3] = test system: M. intracellularae ATCC 15984; experiment: MIC, agar (7H11) dilution method; type: cell-based; settings: read-out: Minimum inhibitory concentrations (MIC)
# M. avium Flamingo = experiment: MIC, agar (7H11) dilution method; type: cell-based; settings: Mycobacterium avium, read-out: Minimum inhibitory concentrations (MIC)
# M. smegmatis Takeo = experiment: MIC, agar (7H11) dilution method; type: cell-based; settings: Mycolicibacterium smegmatis, read-out: Minimum inhibitory concentrations (MIC)
# P. mirabilis ATCC 4630 = experiment: MIC, other bacteria (Table 3); type: cell-based
# M. bovis BCG Tokyo = experiment: microbe, parasite or virus in culture; type: cell-based; settings: Mycobacterium tuberculosis variant bovis BCG, BCG, read-out: Minimum inhibitory concentrations (MIC)
# MRSA 2441-05104 = experiment: MIC, other bacteria (Table 3); type: cell-based, S. aureus; settings: inoculum size 10^6 CFU/ml
# MRSA 2441-05262 = experiment: MIC, other bacteria (Table 3); type: cell-based, S. aureus; settings: inoculum size 10^6 CFU/ml
# VRSA 2441-T0041 = experiment: MIC, other bacteria (Table 3); type: cell-based, S. aureus
# S. marsascens ATCC 14756 = experiment: MIC, other bacteria (Table 3); type: cell-based; settings: inoculum size 10^6 CFU/ml
# E. coli ATCC 25922 = experiment: MIC, other bacteria (Table 3); type: cell-based
# [4] = test system: E. faecalis ATCC 51299 (VRE); experiment: MIC, other bacteria (Table 3); type: cell-based; settings: low level VCM-resistant, Van B, inoculum size 10^6 CFU/ml
# MRSE 2442-05047 = experiment: MIC, other bacteria (Table 3); type: cell-based, S. epidermidis; settings: inoculum size 10^6 CFU/ml
# MRSA 2441-05223 = experiment: MIC, other bacteria (Table 3); type: cell-based, S. aureus; settings: inoculum size 10^6 CFU/ml
# [5] = test system: E. faecalis NCTC 12201 (VRE); experiment: MIC, other bacteria (Table 3); type: cell-based; settings: high level VCM-resistant, Van A, inoculum size 10^6 CFU/ml
# MRSE 2442-05030 = experiment: MIC, other bacteria (Table 3); type: cell-based, S. epidermidis; settings: inoculum size 10^6 CFU/ml
# M. tuberculosis Kurono = experiment: MIC, agar (7H11) dilution method; type: cell-based; settings: Mycobacterium tuberculosis, read-out: Minimum inhibitory concentrations (MIC)
# E. faecium ATCC 49224 = experiment: MIC, other bacteria (Table 3); type: cell-based; settings: E. faecium ATCC 49224, GM-resistant, inoculum size 10^6 CFU/ml
# MRSE 2442-05118 = experiment: MIC, other bacteria (Table 3); type: cell-based, S. epidermidis; settings: inoculum size 10^6 CFU/ml
# MRSE 2442-05110 = experiment: MIC, other bacteria (Table 3); type: cell-based, S. epidermidis; settings: inoculum size 10^6 CFU/ml
# K. pneumoniae ATCC 27736 = experiment: MIC, other bacteria (Table 3); type: cell-based
# MRSA 2441-05254 = experiment: MIC, other bacteria (Table 3); type: cell-based, S. aureus; settings: inoculum size 10^6 CFU/ml
# [6] = test system: S. epidermidis ATCC 12228; experiment: MIC, other bacteria (Table 3); type: cell-based
# S. aureus ATCC 29213 = experiment: MIC, other bacteria (Table 3); type: cell-based
# E. faecalis ATCC 29212 = experiment: MIC, other bacteria (Table 3); type: cell-based
# M. kansasii NIHJ1619 = experiment: MIC, agar (7H11) dilution method; type: cell-based; settings: Mycobacterium kansasii, read-out: Minimum inhibitory concentrations (MIC)
# MRSA 2441-05129 = experiment: MIC, other bacteria (Table 3); type: cell-based, S. aureus; settings: inoculum size 10^6 CFU/ml
# P. aeruginosa ATCC 27853 = experiment: MIC, other bacteria (Table 3); type: cell-based
# M. tuberculosis H37Rv = experiment: MIC, agar (7H11) dilution method; type: cell-based; settings: Mycobacterium tuberculosis, H37RV
# M. aurum = experiment: MIC, agar (7H11) dilution method; type: cell-based; settings: Mycolicibacterium aurum, read-out: Minimum inhibitory concentrations (MIC)
# M. fortuitum NIHJ1615 = experiment: MIC, agar (7H11) dilution method; type: cell-based; settings: Mycolicibacterium fortuitum, read-out: Minimum inhibitory concentrations (MIC)
# MRSE 2442-05053 = experiment: MIC, other bacteria (Table 3); type: cell-based, S. epidermidis; settings: inoculum size 10^6 CFU/ml
# VRSA 2441-T0044 = experiment: MIC, other bacteria (Table 3); type: cell-based, S. aureus
# [7] = Enterococcus faecium, read-out: MIC
# [8] = Staphylococcus epidermidis, read-out: MIC
# [9] = Staphylococcus aureus, read-out: MIC
# [10] = Proteus mirabilis, ATCC4630, inoculum size 10^6 CFU/ml, read-out: MIC
# [11] = Escherichia coli, ATCC25922, inoculum size 10^6 CFU/ml, read-out: MIC
# [12] = Enterococcus faecalis, read-out: MIC
# [13] = Enterococcus faecium, ATCC49224, read-out: MIC
# [14] = Klebsiella pneumoniae, ATCC27736, inoculum size 10^6 CFU/ml, read-out: MIC
# [15] = Staphylococcus epidermidis, ATCC12228, inoculum size 10^6 CFU/ml, read-out: MIC
# [16] = Staphylococcus aureus, ATCC29213, inoculum size 10^6 CFU/ml, read-out: MIC
# [17] = Enterococcus faecalis, ATCC29212, inoculum size 10^6 CFU/ml, read-out: MIC
# [18] = Pseudomonas aeruginosa, ATCC27853, inoculum size 10^6 CFU/ml, read-out: MIC
compound,measurement,setting,value
"C=CCN(C)CCCCCCCCOc1ccc(C(=O)c2ccc(Cl)cc2)c(O)c1 [Cpd #22, (4-(8-(allyl(methyl)amino)octyloxy)-2-hydroxyphenyl)(4-chlorophenyl)methanone]",MIC,[1]; [7],6.25 µg/mL
same,MIC,MRSE 2442-05060; [8],12.5 µg/mL
same,MIC,MRSA 2441-05112; [9],25 µg/mL
same,MIC,[2]; [9],25 µg/mL
same,MIC,[3],6.25 µg/mL
same,MIC,M. avium Flamingo,6.25 µg/mL
same,MIC,M. smegmatis Takeo,12.5 µg/mL
same,MIC,P. mirabilis ATCC 4630; [10],> 100 µg/mL
same,MIC,M. bovis BCG Tokyo,3.13 µg/mL
same,MIC,MRSA 2441-05104; [9],25 µg/mL
same,MIC,MRSA 2441-05262; [9],25 µg/mL
same,MIC,"VRSA 2441-T0041; Staphylococcus aureus, VRSA 2441-T0041, low level VCM-resistant, inoculum size 10^6 CFU/ml, read-out: MIC",25 µg/mL
same,MIC,S. marsascens ATCC 14756; read-out: MIC,> 100 µg/mL
same,MIC,E. coli ATCC 25922; [11],50 µg/mL
same,MIC,[4]; [12],12.5 µg/mL
same,MIC,MRSE 2442-05047; [8],12.5 µg/mL
same,MIC,MRSA 2441-05223; [9],25 µg/mL
same,MIC,[5]; [12],12.5 µg/mL
same,MIC,MRSE 2442-05030; [8],12.5 µg/mL
same,MIC,M. tuberculosis Kurono,1.56 µg/mL
same,MIC,E. faecium ATCC 49224; [13],12.5 µg/mL
same,MIC,MRSE 2442-05118; [8],12.5 µg/mL
same,MIC,MRSE 2442-05110; [8],12.5 µg/mL
same,MIC,K. pneumoniae ATCC 27736; [14],> 100 µg/mL
same,MIC,MRSA 2441-05254; [9],50 µg/mL
same,MIC,[6]; [15],12.5 µg/mL
same,MIC,S. aureus ATCC 29213; [16],25 µg/mL
same,MIC,E. faecalis ATCC 29212; [17],12.5 µg/mL
same,MIC,M. kansasii NIHJ1619,6.25 µg/mL
same,MIC,MRSA 2441-05129; [9],50 µg/mL
same,MIC,P. aeruginosa ATCC 27853; [18],> 100 µg/mL
same,MIC,"M. tuberculosis H37Rv; read-out: Minimum inhibitory concentrations (MIC), M. tuberculosis H37Rv, table line r7 (1st of 5 so labelled)",1.56 µg/mL
same,MIC,"M. tuberculosis H37Rv; read-out: Minimum inhibitory concentrations (MIC), M. tuberculosis H37Rv, table line r8 (2nd of 5 so labelled)",1.56 µg/mL
same,MIC,"M. tuberculosis H37Rv; read-out: Minimum inhibitory concentrations (MIC), M. tuberculosis H37Rv, table line r9 (3rd of 5 so labelled)",1.56 µg/mL
same,MIC,"M. tuberculosis H37Rv; read-out: Minimum inhibitory concentrations (MIC), M. tuberculosis H37Rv, table line r10 (4th of 5 so labelled)",1.56 µg/mL
same,MIC,"M. tuberculosis H37Rv; read-out: Minimum inhibitory concentrations (MIC), M. tuberculosis H37Rv, table line r11 (5th of 5 so labelled)",3.13 µg/mL
same,MIC,M. aurum,6.25 µg/mL
same,MIC,M. fortuitum NIHJ1615,12.5 µg/mL
same,MIC,MRSE 2442-05053; [8],12.5 µg/mL
"COc1cccc(OC)c1C(=O)N[C@@H]1C(=O)N2[C@@H]1SC(C)(C)[C@@H]2C(=O)O [DMPPC, reference compound]",MIC,[1],>400 µg/mL
same,MIC,MRSE 2442-05060,200 µg/mL
same,MIC,MRSA 2441-05112,400 µg/mL
same,MIC,[2],3.13 µg/mL
same,MIC,P. mirabilis ATCC 4630; inoculum size 10^6 CFU/ml,>400 µg/mL
same,MIC,MRSA 2441-05104,100 µg/mL
same,MIC,MRSA 2441-05262,>400 µg/mL
same,MIC,"VRSA 2441-T0041; VRSA 2441-T0041, low level VCM-resistant, inoculum size 10^6 CFU/ml",>400 µg/mL
same,MIC,S. marsascens ATCC 14756,>400 µg/mL
same,MIC,"VRSA 2441-T0044; VRSA 2441-T0044, low level VCM-resistant, inoculum size 10^6 CFU/ml",>400 µg/mL
same,MIC,E. coli ATCC 25922; inoculum size 10^6 CFU/ml,>400 µg/mL
same,MIC,[4],50 µg/mL
same,MIC,MRSE 2442-05047,400 µg/mL
same,MIC,MRSA 2441-05223,125 µg/mL
same,MIC,[5],100 µg/mL
same,MIC,MRSE 2442-05030,1.56 µg/mL
same,MIC,E. faecium ATCC 49224,>400 µg/mL
same,MIC,MRSE 2442-05118,200 µg/mL
same,MIC,MRSE 2442-05110,3.13 µg/mL
same,MIC,K. pneumoniae ATCC 27736; inoculum size 10^6 CFU/ml,>400 µg/mL
same,MIC,MRSA 2441-05254,>400 µg/mL
same,MIC,[6]; inoculum size 10^6 CFU/ml,1.56 µg/mL
same,MIC,S. aureus ATCC 29213; inoculum size 10^6 CFU/ml,1.56 µg/mL
same,MIC,E. faecalis ATCC 29212; inoculum size 10^6 CFU/ml,25 µg/mL
same,MIC,MRSA 2441-05129,>400 µg/mL
same,MIC,P. aeruginosa ATCC 27853; inoculum size 10^6 CFU/ml,>400 µg/mL
same,MIC,MRSE 2442-05053,3.13 µg/mL
"CC1COc2c(N3CCN(C)CC3)c(F)cc3c(=O)c(C(=O)O)cn1c23 (stereo not drawn) [OFLX, ofloxacin, reference compound]",MIC,[1]; [7],3.13 µg/mL
same,MIC,MRSE 2442-05060; [8],6.25 µg/mL
same,MIC,MRSA 2441-05112; [9],50 µg/mL
same,MIC,[2]; [9],0.39 µg/mL
same,MIC,P. mirabilis ATCC 4630; [10],0.39 µg/mL
same,MIC,MRSA 2441-05104; [9],25 µg/mL
same,MIC,MRSA 2441-05262; [9],50 µg/mL
same,MIC,"VRSA 2441-T0041; Staphylococcus aureus, VRSA",1.25 µg/mL
same,MIC,S. marsascens ATCC 14756; read-out: MIC,0.024 µg/mL
same,MIC,"VRSA 2441-T0044; Staphylococcus aureus, VRSA",1.25 µg/mL
same,MIC,E. coli ATCC 25922; [11],0.05 µg/mL
same,MIC,[4]; [12],1.56 µg/mL
same,MIC,MRSE 2442-05047; [8],6.25 µg/mL
same,MIC,MRSA 2441-05223; [9],0.2 µg/mL
same,MIC,[5]; [12],1.56 µg/mL
same,MIC,MRSE 2442-05030; [8],6.25 µg/mL
same,MIC,E. faecium ATCC 49224; [13],3.13 µg/mL
same,MIC,MRSE 2442-05118; [8],6.25 µg/mL
same,MIC,MRSE 2442-05110; [8],6.25 µg/mL
same,MIC,K. pneumoniae ATCC 27736; [14],0.2 µg/mL
same,MIC,MRSA 2441-05254; [9],50 µg/mL
same,MIC,[6]; [15],0.2 µg/mL
same,MIC,S. aureus ATCC 29213; [16],0.2 µg/mL
same,MIC,E. faecalis ATCC 29212; [17],1.56 µg/mL
same,MIC,MRSA 2441-05129; [9],1 µg/mL
same,MIC,P. aeruginosa ATCC 27853; [18],3.13 µg/mL
same,MIC,MRSE 2442-05053; [8],6.25 µg/mL

# — patent US8884061B2, “Compositions and methods of use of electron transport system inhibitors” (priority 2006, dated 2014)
